Test results from patent publication US6414150B1, “4,5-disubstituted imidazole compounds” (SmithKline Beecham Corporation, priority 1996, dated 2002).

tested on: human PGHS-2 protein expression in LPS stimulated human monocytes; assay: Prostaglandin Endoperoxide Synthase-2 (PGHS-2) assay; format: cell-based; details: LPS 50 ng/well overnight, Western blot
Protocol: The following assay describes a method for determining the inhibitory effects of compounds of Formula (I) on human PGHS-2 protein expression in LPS stimulated human monocytes.
Method: Human peripheral blood monocytes were isolated from buffy coats by centrifugation through Ficoll and Percoll gradients. Cells were seeded at 2×10^6/well in 24 well plates and allowed to adhere for 1 hour in RPMI supplemented with 1% human AB serum, 20 mM L-glutamine, Penicillin-Streptomycin and 10 mM HEPES. Compounds were added at various concentrations and incubated at 37° C. for 10 minutes. LPS was added at 50 ng/well (to induce enzyme expression) and incubated overnight at 37° C. The supernatant was removed and cells washed once in cold PBS. The cells were lysed in […] of cold lysis buffer(50 mM Tris/HCl pH 7.5, 150 mM NaCl, 1% NP40, 0.5% sodium deoxycholate, 0.1% SDS, 300 ug/ml DNAse, 0.1% TRITON X-100, 1 mM PMSF, 1 mM leupeptin, 1 mM pepstatin). The lysate was centrifuged (10,000×g for 10 min. at 4° C.) to remove debris and the soluble fraction was subjected to SDS PAGE. analysis (12% gel). Protein separated on the gel were transferred onto nitrocellulose membrane by electrophoretic means for 2 hours at 60 volts. The membrane was pretreated for one hour in PBS/0.1% Tween 20 with 5% non-fat dry milk. After washing 3 times in PBS/Tween buffer, the membrane was incubated with a 1:2000 dilution of a monospecific antiserum to PGHS-2 or a 1:1000 dilution of an antiserum to PGHs-1 in PBS/Tween with 1% BSA for one hour with continuous shaking. The membrane was washed 3× in PBS/Tween and then incubated with a 1:3000 dilution of horseradish peroxidase conjugated donkey antiserum to rabbit Ig (Amersham) in PBS/Tween with 1% BSA for one hour with continuous shaking. The membrane was then washed 3× in PBS/Tween and the ECL immunodetection system (Amersham) was used to detect the level of expression of prostaglandin endoperoxide synthases-2.

Row | Compound | inhibition of LPS induced PGHS-2 protein expression
1 | Fc1ccc(-c2nc3n(c2-c2ccncc2)CCS3)cc1 [6-(4-Fluoro-phenyl)-2,3-dihydro-5-(4-pyridinyl)imidazo[2,1-b]thiazole] | active
2 | C[C@@H]1C[C@H]2[C@@H]3CCC4=CC(=O)C=C[C@]4(C)[C@@]3(F)[C@@H](O)C[C@]2(C)[C@@]1(O)C(=O)CO [Dexamethasone] | active

same assay, conditions: tested up to 10 uM

Row | Compound | inhibition of LPS induced PGHS-2 protein expression
3 | C[S+]([O-])c1ccc(-c2nc3n(c2-c2ccncc2)CCC3)cc1 (stereo not drawn) [2-(4-Methylsulfinylphenyl)-3-(4-pyridyl)-6,7-dihydro-(5H)-pyrrolo[1,2-a]imidazole] | inactive
4 | CC(Cc1ccc(O)c(O)c1)C(C)Cc1ccc(O)c(O)c1 (stereo not drawn) [NDGA] | inactive
5 | O=C1CCN(c2ccccc2)N1 [phenidone] | inactive
6 | COc1ccc(C2CNC(=O)C2)cc1OC1CCCC1 (stereo not drawn) [rolipram] | inactive
